Data from ChEMBL document CHEMBL1130513, “New hepatoprotective saponins, bupleurosides III, VI, IX, and XIII, from Chinese Bupleuri Radix: Structure-requirements for the cytoprotective activity in primary cultured rat hepatocytes” (1997).

Assays:
Assay type in all cases: functional
Conditions in all cases: Hepatocyte
[1] = species on record: Rattus norvegicus; test: In vitro inhibitory effect on D-Galactosamine induced cytotoxicity in primary cultured rat hepatocytes at 10 ug/mL
[2] = species on record: Rattus norvegicus; test: In vitro inhibitory effect on D-Galactosamine induced cytotoxicity in primary cultured rat hepatocytes at 30 ug/mL
[3] = species on record: Rattus norvegicus; test: In vitro inhibitory effect on D-Galactosamine induced cytotoxicity in primary cultured rat hepatocytes at 1 ug/mL
[4] = species on record: Rattus norvegicus; test: In vitro inhibitory effect on D-Galactosamine induced cytotoxicity in primary cultured rat hepatocytes at 0.3 ug/mL
[5] = species on record: Rattus norvegicus; test: In vitro inhibitory effect on D-Galactosamine induced cytotoxicity in primary cultured rat hepatocytes at 3 ug/mL

Row | Structure (SMILES) | inhibition at 10 µg/mL [1] | inhibition at 30 µg/mL [2] | inhibition at 1 µg/mL [3] | inhibition at 0.3 µg/mL [4] | inhibition at 3 µg/mL [5]
1 | C[C@@H]1O[C@@H](O[C@@H]2[C@H](O)[C@@H](O)[C@H](O[C@H]3CC[C@@]4(C)C(CC[C@]5(C)C4CC=C4C6CC(C)(C)CC[C@]6(CO)CC[C@]45C)C3(C)C)O[C@@H]2CO[C@@H]2O[C@H](CO)[C@@H](O)[C@H](O)[C@H]2O)[C@H](O)[C@H](O)[C@H]1O (stereo not given in full) [BUPLEUROSIDE XI] | 0.3% | -0.3% | 1.6% | -0.4% | -1%
2 | C[C@@H]1O[C@@H](O[C@@H]2[C@H](O)[C@@H](O)[C@H](OC3CC[C@@]4(C)C(CC[C@]5(C)[C@@H]4CC=C4C6CC(C)(C)CC[C@]6(CO)[C@@H](O)C[C@]45C)C3(C)C)O[C@@H]2CO[C@@H]2O[C@H](CO)[C@@H](O)[C@H](O)[C@H]2O)[C@H](O)[C@H](O)[C@H]1O (stereo not given in full) | -2.9% | -0.7% | 0.2% | 3.1% | -2.9%
3 | CO[C@@H]1C=C2C3CC(C)(C)CC[C@]3(CO)[C@@H](O)C[C@@]2(C)[C@]2(C)CCC3[C@](C)(CCC(O[C@@H]4O[C@H](CO[C@@H]5O[C@H](CO)[C@@H](O)[C@H](O)[C@H]5O)[C@H](O[C@@H]5O[C@@H](C)[C@H](O)[C@@H](O)[C@H]5O)[C@H](O)[C@H]4O)[C@@]3(C)CO)C12 (stereo not given in full) | 2.9% | 4.8% | 1.2% | 1.5% | 3.5%
4 | C[C@H]1O[C@@H](O[C@H]2CC[C@@]3(C)C(CC[C@]4(C)C3C=C[C@]35OC[C@@]6(CCC(C)(C)CC63)[C@@H](O)C[C@]54C)[C@]2(C)CO)[C@H](O)[C@@H](O[C@@H]2O[C@H](CO)[C@@H](O)[C@H](O)[C@H]2O[C@@H]2O[C@H](CO)[C@@H](O)[C@H](O)[C@H]2O)[C@H]1O (stereo not given in full) [BUPLEUROSIDE I] | -7.8% | -12.2% | -6.5% | -5.4% | -7.8%
5 | CO[C@@H]1C=C2C3CC(C)(C)CC[C@]3(CO)[C@@H](O)C[C@@]2(C)[C@]2(C)CCC3[C@](C)(CCC(O[C@@H]4O[C@H](C)[C@H](O)[C@H](O[C@@H]5O[C@H](CO)[C@@H](O)[C@H](O)[C@H]5O)[C@H]4O)[C@@]3(C)CO)C12 (stereo not given in full) | 70.4% | 72.1% | 13.9% | 8.7% | 56.4%
6 | C[C@H]1O[C@@H](OC2CC[C@@]3(C)C(CC[C@]4(C)C3C=CC3=C5CC(C)(C)CC[C@]5(CO)[C@H](O)C[C@]34C)[C@]2(C)CO)[C@H](O)[C@@H](O[C@@H]2O[C@H](CO)[C@@H](O)[C@H](O)[C@H]2O)[C@H]1O (stereo not given in full) | 5.5% | 8.4% | 6.1% | 2.7% | 5.3%
7 | C[C@@H]1O[C@@H](O[C@@H]2[C@H](O)[C@@H](O)[C@H](O[C@H]3CC[C@@]4(C)C(CC[C@]5(C)C4C=C[C@]46OC[C@@]7(CCC(C)(C)CC74)[C@@H](O)C[C@]65C)C3(C)C)O[C@@H]2CO[C@@H]2O[C@H](CO)[C@@H](O)[C@H](O)[C@H]2O)[C@H](O)[C@H](O)[C@H]1O (stereo not given in full) [SAIKOSAPONIN C] | -1% | -1% | -0.7% | -1.5% | -1.9%
8 | CO[C@@H]1C=C2C3CC(C)(C)CC[C@]3(CO)[C@@H](O)C[C@@]2(C)[C@]2(C)CCC3C(C)(C)C(O[C@@H]4O[C@H](CO[C@@H]5O[C@H](CO)[C@@H](O)[C@H](O)[C@H]5O)[C@H](O[C@@H]5O[C@@H](C)[C@H](O)[C@@H](O)[C@H]5O)[C@H](O)[C@H]4O)CC[C@]3(C)[C@@H]12 (stereo not given in full) | 11.1% | 8.1% | 9.7% | 10.3% | 4.5%
9 | CO[C@@H]1C=C2C3CC(C)(C)CC[C@]3(CO)[C@H](O)C[C@@]2(C)[C@]2(C)CCC3[C@](C)(CCC(O[C@@H]4O[C@H](C)[C@H](O)[C@H](O[C@@H]5O[C@H](CO)[C@@H](O)[C@H](O)[C@H]5O)[C@H]4O)[C@@]3(C)CO)C12 (stereo not given in full) | -8.3% | -9.9% | -4% | 3.6% | -6.9%
10 | CO[C@@H]1C=C2C3CC(C)(C)CC[C@]3(CO)[C@H](O)C[C@@]2(C)[C@]2(C)CCC3[C@](C)(CC[C@H](O[C@@H]4O[C@H](C)[C@H](O)[C@H](O[C@@H]5O[C@H](CO)[C@@H](O)[C@H](O)[C@H]5O[C@@H]5O[C@H](CO)[C@@H](O)[C@H](O)[C@H]5O)[C@H]4O)[C@@]3(C)CO)C12 (stereo not given in full) | -2.2% | -2.9% | 0.3% | 1.7% | -0.4%
11 | CO[C@@H]1C=C2C3CC(C)(C)CC[C@]3(CO)[C@@H](O)C[C@@]2(C)[C@]2(C)CCC3C(C)(C)[C@@H](O[C@@H]4O[C@H](C)[C@H](O)[C@H](O[C@@H]5O[C@H](CO)[C@@H](O)[C@H](O)[C@H]5O)[C@H]4O)CC[C@]3(C)C12 (stereo not given in full) | 73.3% | 75% | 64.9% | 37.2% | 75.5%
12 | C[C@H]1O[C@@H](OC2CC[C@@]3(C)C(CC[C@]4(C)C3C=C[C@]35OC[C@@]6(CCC(C)(C)CC63)[C@@H](O)C[C@]54C)C2(C)C)[C@H](O)[C@@H](O[C@@H]2O[C@H](CO)[C@@H](O)[C@H](O)[C@H]2O)[C@H]1O (stereo not given in full) | -29.2% | -30.6% | -17.1% | -12% | -26.9%
13 | C[C@@H]1O[C@@H](O[C@@H]2[C@H](O)[C@@H](O)[C@H](O[C@H]3CC[C@@]4(C)C(CC[C@]5(C)C4C(=O)C=C4C6CC(C)(C)CC[C@]6(CO)[C@@H](O)C[C@]45C)C3(C)C)O[C@@H]2CO[C@@H]2O[C@H](CO)[C@@H](O)[C@H](O)[C@H]2O)[C@H](O)[C@H](O)[C@H]1O (stereo not given in full) [BUPLEUROSIDE VII] | 2.2% | 3.2% | 2.5% | -0.6% | 4.3%
14 | C[C@@H]1O[C@@H](O[C@@H]2[C@H](O)[C@@H](O)[C@H](OC3CC[C@@]4(C)C(CC[C@]5(C)[C@@H]4[C@H](O)C=C4C6CC(C)(C)CC[C@]6(CO)[C@@H](O)C[C@]45C)C3(C)C)O[C@@H]2CO[C@@H]2O[C@H](CO)[C@@H](O)[C@H](O)[C@H]2O)[C@H](O)[C@H](O)[C@H]1O (stereo not given in full) | -3.2% | -6.5% | -5.1% | -2.3% | -3.4%
15 | C[C@H]1O[C@@H](OC2CC[C@@]3(C)C(CC[C@]4(C)C3C=CC3=C5C[C@](C)(C(=O)O)CC[C@]5(CO)[C@H](O)C[C@]34C)[C@]2(C)CO)[C@H](O)[C@@H](O[C@@H]2O[C@H](CO)[C@@H](O)[C@H](O)[C@H]2O)[C@H]1O (stereo not given in full) [BUPLEUROSIDE V] | 3.8% | 4.5% | 1.5% | 1.4% | 1.4%
16 | C[C@H]1O[C@@H](O[C@H]2CC[C@@]3(C)C(CC[C@]4(C)C3C=C[C@]35OC[C@@]6(CCC(C)(C)CC63)[C@@H](O)C[C@]54C)[C@]2(C)CO)[C@H](O)[C@@H](O[C@@H]2O[C@H](CO)[C@@H](O)[C@H](O)[C@H]2O)[C@H]1O (stereo not given in full) | -12.7% | -14.8% | -7.1% | -3.6% | -11.6%
17 | C[C@@H]1O[C@@H](O[C@H]2[C@@H](O)[C@@H](CO[C@@H]3O[C@H](CO)[C@@H](O)[C@H](O)[C@H]3O)O[C@@H](OC3CC[C@@]4(C)C(CC[C@]5(C)C4C=CC4=C6CC(C)(C)CC[C@]6(CO)[C@H](O)C[C@]45C)[C@]3(C)CO)[C@@H]2O)[C@H](O)[C@H](O)[C@H]1O (stereo not given in full) [BUPLEUROSIDE X] | 3.4% | 2.7% | 3.9% | 2.9% | 4.6%
18 | CC1(C)CC[C@@]2(CO)C(C1)C1=CC(=O)C3[C@@]4(C)CC[C@H](O)[C@@](C)(CO)C4CC[C@@]3(C)[C@]1(C)C[C@@H]2O (stereo not given in full) | 0.4% | 4.9% | 0.6% | 0.6% | 0%
19 | CC1(C)CC[C@]2(C(=O)O)CC[C@]3(C)C(=CCC4[C@@]5(C)CC[C@H](O[C@@H]6O[C@H](CO)[C@H](O)[C@H](O[C@@H]7OC[C@@H](O)[C@@H](O)[C@@H]7O[C@@H]7O[C@H](CO)[C@@H](O)[C@H](O)[C@H]7O)[C@H]6O)C(C)(C)C5CC[C@]43C)C2C1 (stereo not given in full) [BUPLEUROSIDE VII1] | -1.4% | -1.4% | 0.1% | 1.5% | -0.9%
